In US20170129919A1, “CYCLIC DIPEPTIDE-CONTAINING COMPOSITION” (Suntory Holdings Limited, priority 2014, published 2017):
Converted amounts (≈) assume the structure as drawn. Read-outs that look alike come from different tables or passages of the source.

Experiments:
xanthine oxidase (XO) = assay: In vitro xanthine oxidase (XO) inhibiting action; assay type: biochemical; conditions: for IC50: PBS pH 7.5, xanthine substrate, absorbance at 295 nm after 30 minutes, mean±standard error; for Inhibition Rate (%) at Concentration of 100 μM: Table 2, XO inhibition at 100 μM; for action of inhibiting a xanthine oxidase (in words): summary of Tables 1 to 3
Method: The in vitro xanthine oxidase (XO) inhibiting action was studied on 210 kinds of cyclic dipeptides, linear dipeptides Tyr-Gly and Gly-Tyr, and an amino acid Tyr. […] Thereafter, 20 μL of a 250 μM xanthine solution previously dissolved in the PBS was added thereto, and the absorbance after 30 minutes was measured using a spectrophotometer (Synegy HT, manufactured by Bio Tek). The XO inhibition rate (%) at each concentration was calculated by the following calculation formula, to obtain activities of inhibiting XO (IC50 values).

Solubility in water = assay type: physicochemical; conditions: Table 5; for Solubility in Water: distilled water, 25° C., ultrasonication 30 minutes, visual examination, tested at 5, 1, 0.1, 0.01 mM, insoluble = not dissolved at 0.01 mM
Method: Concretely, each compound was added to distilled water (manufactured by Otsuka Pharmaceutical Co., Ltd.) at an ambient temperature (25° C.) so as to have a final concentration of 5 mM, and the mixture was stirred under ultrasonication for 30 minutes to dissolve. […] However, none of the compounds dissolved, so that distilled water was further added thereto so as to have a final concentration of 0.01 mM, and the mixture was stirred under ultrasonication for 30 minutes, but still no compounds dissolved.

[1] = Table 3, read-out: IC50 (Activity of Inhibiting XO of Phe-Containing Cyclic Dipeptides)
[2] = Table 1, read-out: IC50 (Activity of Inhibiting XO of Tyr-Containing Cyclic Dipeptides)

IC50 (xanthine oxidase (XO); [1]) [µM]	Solubility in Water (Solubility in water)	Molecule	other results
> 300		NCCCCC1NC(=O)C(Cc2ccccc2)NC1=O (stereo not shown) [Cyclo(Lys-Phe), reference compound]	
	5000 µM (≈ 1460 µg/mL)	NCCCC[C@@H]1NC(=O)[C@H](Cc2ccc(O)cc2)NC1=O [Cyclo(Lys-Tyr), cyclolysyltyrosine]	Inhibition Rate (%) at Concentration of 100 μM (xanthine oxidase (XO)): 25.7%; solubility in water (in words) (Solubility in water): high solubility in water
> 100		CSCCC1NC(=O)C(Cc2ccccc2)NC1=O (stereo not shown) [Cyclo(Met-Phe), reference compound]	
	5000 µM (≈ 1470 µg/mL)	CSCCC1NC(=O)C(Cc2ccc(O)cc2)NC1=O (stereo not shown) [Cyclo(Met-Tyr), cyclomethionyltyrosine]	IC50 (xanthine oxidase (XO); [2]): 56.4 ± 2.9 µM; solubility in water (in words) (Solubility in water): high solubility in water
133 ± 25.2		O=C1NC(Cc2ccccc2)C(=O)NC1CS (stereo not shown) [Cyclo(Phe-Cys), reference compound]	
> 100		O=C1CNC(=O)C(Cc2ccccc2)N1 (stereo not shown) [Cyclo(Phe-Gly), reference compound]	
> 100		O=C1NC(Cc2ccccc2)C(=O)NC1Cc1ccccc1 (stereo not shown) [Cyclo(Phe-Phe), reference compound]	
22.2 ± 0.8	insoluble	O=C1N[C@@H](Cc2ccc(O)cc2)C(=O)N[C@H]1Cc1ccccc1 [Cyclo(Phe-Tyr), cyclophenylalanyltyrosine]	IC50 (xanthine oxidase (XO); [2]): 22.2 ± 0.8 µM; action of inhibiting a xanthine oxidase (in words) (xanthine oxidase (XO)): high action of inhibiting a xanthine oxidase
	1000 µM (≈ 260 µg/mL)	O=C1N[C@@H](Cc2ccc(O)cc2)C(=O)N2CCC[C@@H]12 [Cyclo(Pro-Tyr), cycloprolyltyrosine]	Inhibition Rate (%) at Concentration of 100 μM (xanthine oxidase (XO)): 2.3%; solubility in water (in words) (Solubility in water): high solubility in water
> 300		O=C1NC(Cc2ccccc2)C(=O)NC1CO (stereo not shown) [Cyclo(Ser-Phe), reference compound]	
	insoluble	O=C1NC(Cc2ccc(O)cc2)C(=O)NC1CO (stereo not shown) [Cyclo(Ser-Tyr), cycloseryltyrosine]	IC50 (xanthine oxidase (XO); [2]): 189 ± 52.5 µM
> 300		CC(O)C1NC(=O)C(Cc2ccccc2)NC1=O (stereo not shown) [Cyclo(Thr-Phe), reference compound]	
	1000 µM (≈ 264 µg/mL)	C[C@@H](O)[C@@H]1NC(=O)[C@H](Cc2ccc(O)cc2)NC1=O [Cyclo(Thr-Tyr), cyclothreonyltyrosine]	Inhibition Rate (%) at Concentration of 100 μM (xanthine oxidase (XO)): 2.6%; solubility in water (in words) (Solubility in water): high solubility in water
> 100		O=C1NC(Cc2c[nH]c3ccccc23)C(=O)NC1Cc1ccccc1 (stereo not shown) [Cyclo(Trp-Phe), reference compound]	
	insoluble	O=C1N[C@@H](Cc2ccc(O)cc2)C(=O)N[C@H]1Cc1ccc(O)cc1 [Cyclo(Tyr-Tyr), cyclotyrosyltyrosine]	IC50 (xanthine oxidase (XO); [2]): 29.5 ± 2.9 µM; action of inhibiting a xanthine oxidase (in words) (xanthine oxidase (XO)): high action of inhibiting a xanthine oxidase
60.5 ± 2.4		CC(C)C1NC(=O)C(Cc2ccccc2)NC1=O (stereo not shown) [Cyclo(Val-Phe), reference compound]	
	insoluble	CC(C)C1NC(=O)C(Cc2ccc(O)cc2)NC1=O (stereo not shown) [Cyclo(Val-Tyr), cyclovalyltyrosine]	IC50 (xanthine oxidase (XO); [2]): 79.4 ± 16.1 µM
	insoluble	cycloleucyltyrosine [Cyclo(Leu-Tyr)]	IC50 (xanthine oxidase (XO); [2]): 23.8 ± 5.3 µM; action of inhibiting a xanthine oxidase (in words) (xanthine oxidase (XO)): high action of inhibiting a xanthine oxidase
	insoluble	cyclotryptophanyltyrosine [Cyclo(Trp-Tyr)]	Inhibition Rate (%) at Concentration of 100 μM (xanthine oxidase (XO)): 19.1%

The next lines start with the molecule.

Molecule	IC50 (xanthine oxidase (XO); [1]) [µM]	Solubility in Water (Solubility in water)	other results
CC1NC(=O)C(Cc2ccccc2)NC1=O (stereo not shown) [Cyclo(Ala-Phe), reference compound]	> 100		
CC1NC(=O)C(Cc2ccc(O)cc2)NC1=O (stereo not shown) [Cyclo(Ala-Tyr), cycloalanyltyrosine]		insoluble	Inhibition Rate (%) at Concentration of 100 μM (xanthine oxidase (XO)): 8.3%
N=C(N)NCCCC1NC(=O)C(Cc2ccccc2)NC1=O (stereo not shown) [Cyclo(Arg-Phe), reference compound]	> 300		
N=C(N)NCCCC1NC(=O)C(Cc2ccc(O)cc2)NC1=O (stereo not shown) [Cyclo(Arg-Tyr), cycloarginyltyrosine]		5000 µM (≈ 1600 µg/mL)	IC50 (xanthine oxidase (XO); [2]): 211 µM; solubility in water (in words) (Solubility in water): high solubility in water
NC(=O)CC1NC(=O)C(Cc2ccccc2)NC1=O (stereo not shown) [Cyclo(Asn-Phe), reference compound]	> 300		
NC(=O)C[C@@H]1NC(=O)[C@H](Cc2ccc(O)cc2)NC1=O [Cyclo(Asn-Tyr), cycloasparaginyltyrosine]		1000 µM (≈ 277 µg/mL)	IC50 (xanthine oxidase (XO); [2]): 113 µM; solubility in water (in words) (Solubility in water): high solubility in water
O=C(O)CC1NC(=O)C(Cc2ccccc2)NC1=O (stereo not shown) [Cyclo(Asp-Phe), reference compound]	> 300		
O=C(O)C[C@@H]1NC(=O)[C@H](Cc2ccc(O)cc2)NC1=O [Cyclo(Asp-Tyr), cycloaspartyltyrosine]		5000 µM (≈ 1390 µg/mL)	IC50 (xanthine oxidase (XO); [2]): 172 µM; solubility in water (in words) (Solubility in water): high solubility in water
NC(=O)CCC1NC(=O)C(Cc2ccccc2)NC1=O (stereo not shown) [Cyclo(Gln-Phe), reference compound]	> 300		
NC(=O)CC[C@@H]1NC(=O)[C@H](Cc2ccc(O)cc2)NC1=O [Cyclo(Gln-Tyr), cycloglutaminyltyrosine]		1000 µM (≈ 291 µg/mL)	Inhibition Rate (%) at Concentration of 100 μM (xanthine oxidase (XO)): 42.6%; solubility in water (in words) (Solubility in water): high solubility in water
O=C(O)CCC1NC(=O)C(Cc2ccccc2)NC1=O (stereo not shown) [Cyclo(Glu-Phe), reference compound]	> 100		
O=C(O)CC[C@@H]1NC(=O)[C@H](Cc2ccc(O)cc2)NC1=O [Cyclo(Glu-Tyr), cycloglutamyltyrosine]		5000 µM (≈ 1460 µg/mL)	Inhibition Rate (%) at Concentration of 100 μM (xanthine oxidase (XO)): 0.4%; solubility in water (in words) (Solubility in water): high solubility in water
O=C1NC(Cc2cnc[nH]2)C(=O)NC1Cc1ccccc1 (stereo not shown) [Cyclo(His-Phe), reference compound]	> 100		
O=C1N[C@@H](Cc2c[nH]cn2)C(=O)N[C@H]1Cc1ccc(O)cc1 [Cyclo(His-Tyr), cyclohistidyltyrosine]		1000 µM (≈ 300 µg/mL)	Inhibition Rate (%) at Concentration of 100 μM (xanthine oxidase (XO)): 3.2%; solubility in water (in words) (Solubility in water): high solubility in water
CCC(C)C1NC(=O)C(Cc2ccccc2)NC1=O (stereo not shown) [Cyclo(Ile-Phe), reference compound]	> 100		
CCC(C)C1NC(=O)C(Cc2ccc(O)cc2)NC1=O (stereo not shown) [Cyclo(Ile-Tyr), cycloisoleucyltyrosine]		1000 µM (≈ 276 µg/mL)	IC50 (xanthine oxidase (XO); [2]): 86.7 ± 2.8 µM; solubility in water (in words) (Solubility in water): high solubility in water
CC(C)CC1NC(=O)C(Cc2ccccc2)NC1=O (stereo not shown) [Cyclo(Leu-Phe), reference compound]	> 100		
O=C1NC(Cc2ccccc2)C(=O)N2CCCC12 (stereo not shown) [Cyclo(Pro-Phe), reference compound]	> 100		
